Laboratory results as given in patent US7056893B2, “Topical treatment for prevention of ocular infections” (Insite Vision, Inc., priority 1999, dated 2006).

Tests used:
[1] = assay type: physicochemical
Protocol: The thermal stability of azithromycin at 40° C. is measured in 50 mM phosphate buffer adjusted to the pH values indicated in FIG. 2. FIG. 3 is a secondary plot of data derived from the azithromycin stability profiles in FIG. 2. […] 6-6.5. A formulation pH of 6.3 is preferred to minimize degradation of azithromycin in aqueous formulations including those that employ DuraSite®.

[2] = assay type: physicochemical; remark: listed apart in the source
Source text: Ophthalmic carrier(s) is used in a broad sense and includes any material or composition that can contain and release the azalide antibiotic and that is compatible with the eye. Typically the ophthalmically acceptable carrier is water or an aqueous solution or suspension, but also includes oils such as those used to make ointments and polymer matrices such as used in ocular inserts. […] The stabilized compositions of this invention advantageously employ the increased water solubility of the protonated form of the antibiotic that is compatible with the optimal pH range for azalide antibiotic stability. […] Accordingly, stabilized aqueous solution of an azalide antibiotic can be formed and used for topical application. Alternatively, aqueous compositions containing a portion of the azalide antibiotic in suspension may be employed for topical administration. Ointments and solid dosage forms can also be used as delivery compositions as are well known in the art. The concentration of azalide antibiotic present in the ophthalmic composition depends upon the dosage form, the release rate, the dosing regimen, and the location and type of infection. […]
The solubility of azithromycin is measured as a function of pH in 0.2 M citric acid buffer over the range of pH 5.91 to 9.0.

Row | pH interval of maximum stability [1] | pH of stability maximum [1] | water solubility [2] [mg/mL] | SMILES
1 | 5.0-7.0 | about 6.3 | – | CCC1OC(=O)C(C)C(OC2CC(C)(OC)C(O)C(C)O2)C(C)C(OC2OC(C)CC(N(C)C)C2O)C(C)(O)CC(C)CN(C)C(C)C(O)C1(C)O (stereo not drawn) [Azithromycin, N-methyl-11-aza-10-deoxo-10-dihydroerythromycin]
2 | – | – | 200 to 250 | CC[C@H]1OC(=O)[C@H](C)[C@@H](O[C@H]2C[C@@](C)(OC)[C@@H](O)[C@H](C)O2)[C@H](C)[C@@H](O[C@@H]2O[C@H](C)C[C@H](N(C)C)[C@H]2O)[C@](C)(O)C[C@@H](C)CN(C)[C@H](C)[C@@H](O)[C@]1(C)O.O.O [azithromycin dihydrate]
